Experimental data as given in US20230265524A1, “IMMUNOGENIC RETROELEMENTS AND THEIR USE IN CANCER THERAPY” (UNIVERSITY HEALTH NETWORK, priority 2020, published 2023).

Columns and labels:
[1] = system: patient-derived colorectal cancer cells (CRCs); test: total stranded RNA-seq of repeat element expression after 5-AZA-CdR; assay type: cell-based, human; conditions: low doses of 5-AZA-CdR, 5 days, vs mock-treated
Method: A, Effect of 5-AZA-CdR on repeat element expression in patient-derived xenograft colorectal cancer cells after 5 days of treatment. Plots show log (fold change) for 5-AZA-CdR treated cells over mock-treated cells for anti-sense (y-axis) and sense (x-axis) transcripts of each SINE, LINE and ERV repeat element (CPM). […] The significance was determined as p≤0.05 and |log FC|≥1 at each strand.
To identify drug-induced immunogenic retroelements on a global scale, we examined the endogenous dsRNA formation in patient-derived colorectal cancer cells (CRCs) that were treated with low doses of 5-AZA-CdR, an FDA-approved DNMTi, or mock-treated. To this end, we performed total stranded RNA-seq and assessed repetitive elements transcribed in both strands, therefore likely to produce dsRNA species.

ADAR1 [2] = test: qPCR analysis of ADAR1 mRNA level and isoforms; assay type: cell-based, human
Method: C, qPCR analysis of total ADAR1 mRNA level after treatment with 5-AZA-CdR (300 nM, for 5 days) or transfection with 100 ng ml-1 poly(I:C) over a course of 24 days. Cells were washed out at day 5 and seeded in drug-free medium. Data are mean±s.e.m.****P<0.0001, Sidak-corrected two-way ANOVA.
A, ADAR1 isoforms (p110 and p150) relative expression analysed by qPCR. LACZ denotes ADAR1WT; PIC denotes 100 ng/ml poly (I:C) for 5 days; AZA denotes 300 nM 5-AZA-CdR for 5 days). Data are mean±s.e.m. (n=3 from three independent experiments). ***P<0.001, ****P<0.0001, Tukey-corrected two-way ANOVA.
To test this hypothesis, we first determined if ADAR1 depletion affects dsRNA formation by IR-Alus in untreated patient-derived CRCs. We generated ADAR1 knock-down CRCs using two different hairpin RNAs (ADAR1^KDA/B) and confirmed depletion of both the constitutively expressed (p110) and interferon-inducible (p150) ADAR1 isoforms (FIG. 8A). […] To determine if MDA5 ligands also increase upon ADAR1 depletion, we performed the MDA5 protection assay followed by RNA-Seq, as above. […] Again, these immunogenic Alus were primarily IR-Alu pairs unidirectionally transcribed in either the sense (+/+) or antisense (−/−) direction and induced upon ADAR1 depletion (FIG. 9C-J).
(§1) Next, we tested whether epigenetic therapy can induce and activate ADAR1 editing activity.

ADAR1 [3] = test: genome-wide A-to-I editing loci counts in Alus (RNA-seq); assay type: cell-based, human
Description: G, Genome-wide A-to-I editing loci counts in Alus in the RNA-seq data performed in the total cytoplasmic fraction (‘Total CytoRNA’) and in the MDA5-protected fraction (‘MDA5-protected’) at the mock-treated (MT) ADAR1^WT, 5-AZA-CdR-treated ADAR1^WT, mock-treated ADAR1^KD, and 5-AZA-CdR-treated ADAR1^KD conditions.
as §1

[4] = system: patient-derived CRC cells; test: survival of patient-derived CRC cells, luminescence dose-response; assay type: cell-based, human; conditions: in vitro, ADAR1-knockdown vs wild-type patient-derived CRC cells
Method: A, Survival of wild-type ADAR1 (black) and ADAR1-knockdown (gray) patient-derived CRC cells after treatment with 5-AZA-CdR. Luminescence signal was normalized, and dose-response curves and EC50 values were calculated using a nonlinear regression curve fit.
Finally, we sought to investigate whether ADAR1 inhibition would synergize with epigenetic therapy to increase the anti-tumour response. […] To examine the potential synergy in vivo, we injected ADAR1^KDA/B or wildtype patient-derived xenograft CRC cells subcutaneously into immune-deficient NOD.Cg-Prkdc (NSG) mice, and treated the mice with 5-AZA-CdR or vehicle (PBS) (FIG. 12B and FIG. 13A). […] Thus, ADAR1 inhibition in human cancer cells profoundly sensitizes tumours to 5-AZA-CdR treatment in vivo.

[5] = system: patient-derived CRC cells; test: in vitro sphere initiation assay followed by limiting dilution analysis (LDA); assay type: cell-based, human; conditions: ADAR1-depleted CRC cells treated with 5-AZA-CdR
Method: B, The normalized percentage of reduction in sphere forming ability was calculated in each condition compared to Mock-treated.
(§2) One of the major challenges facing conventional chemotherapy is the persistence of cancer initiating cells (CICs), often resulting in relapse^38-40. We and others have previously shown that 5-AZA-CdR treatment can target colorectal cancer CICs by inducing the viral mimicry response^1,41. We therefore tested whether ADAR1^KD by itself or in combination with 5-AZA-CdR can decrease tumour initiation. To this end, we first employed an in vitro sphere initiation assay followed by limiting dilution analysis (LDA) using patient-derived CRC cells. […] In addition, we performed in vivo tumour initiation assays by injecting serially diluted patient-derived CRC cells into NSG immunodeficient mice and inspected tumour engraftment for up to 6 months after injection (FIG. 12F).

[6] = system: patient-derived CRC cells; test: in vivo LDA measuring tumour-initiation potential; parameters: species or system NSG mice
Method: F Schematic representation of in vivo LDA measuring tumour-initiation potential. NSG mice were injected with 10,000 cells (n=8 tumours), 1,000 cells (n=8 tumours), 100 cells (n=8 tumours) and 10 cells (n=16 tumours).
G, Tumour-initiating cell frequency from the in vivo LDA of patient-derived CRC cells for each condition. ADAR1WT 5-AZA-CdR vs ADAR1KDA 5-AZA-CdR P=0.00862; ADAR1WT 5-AZA-CdR vs ADAR1KDB 5-AZA-CdR P=0.009; chi-square test.
as §2

Nc1ncn([C@H]2C[C@H](O)[C@@H](CO)O2)c(=O)n1 [5-AZA-CdR]
sense and/or antisense transcription of repeat elements (LINEs, ERVs, SINEs) [1]: increased sense and/or antisense transcription of long interspersed nuclear elements (LINEs) and ERVs, but not short interspersed nuclear elements (SINEs)
ADAR1 expression (ADAR1 [2]; patient-derived CRCs, 300 nM for 5 days): up-regulated ADAR1 expression
duration of ADAR1 up-regulation after drug withdrawal (ADAR1 [2]; washed out at day 5, drug-free medium, 24 days course): sustained for about fourteen days after drug withdrawal
A-to-I editing of MDA5-protected Alus (ADAR1 [3]; ADAR1-depleted cells): depletion of ADAR1 abrogated this effect
A-to-I editing of MDA5-protected Alus (ADAR1 [3]; ADAR1 WT cells): genome-wide increased A-to-I editing
reduction of EC50 by ADAR1 knock-down [4]: four to six-fold reduction
spheroid forming potential [5]: reduced the spheroid forming potential
Number of Engrafted tumours/number of injected tumours ([6]; ADAR1^KDA, 10 cells injected): 0/16
Number of Engrafted tumours/number of injected tumours ([6]; ADAR1^KDA, 100 cells injected): 0/8
Number of Engrafted tumours/number of injected tumours ([6]; ADAR1^KDA, 1,000 cells injected): 3/8
Number of Engrafted tumours/number of injected tumours ([6]; ADAR1^KDA, 10,000 cells injected): 5/8
tumour engraftment potential ([6]; ADAR1^KDA/B cells relative to wild-type, up to 6 months): substantially reduced tumour engraftment potential
Number of Engrafted tumours/number of injected tumours ([6]; ADAR1^KDB, 10 cells injected): 0/16
Number of Engrafted tumours/number of injected tumours ([6]; ADAR1^KDB, 100 cells injected): 0/8
Number of Engrafted tumours/number of injected tumours ([6]; ADAR1^KDB, 1,000 cells injected): 1/8
Number of Engrafted tumours/number of injected tumours ([6]; ADAR1^KDB, 10,000 cells injected): 6/8
Number of Engrafted tumours/number of injected tumours ([6]; ADAR1^WT, 10 cells injected): 0/16
Number of Engrafted tumours/number of injected tumours ([6]; ADAR1^WT, 100 cells injected): 3/8
Number of Engrafted tumours/number of injected tumours ([6]; ADAR1^WT, 1,000 cells injected): 5/8
Number of Engrafted tumours/number of injected tumours ([6]; ADAR1^WT, 10,000 cells injected): 7/8
